From US20240327463A1, “ANTIBACTERIAL PRODUCTS” (priority 2017, published 2024)
Converted amounts (≈) assume the structure as drawn. Blank lines part the entries; values can stand above or below the molecule they belong to. Bridge positions count the residues as written; N and C are the ends. Square brackets hold non-standard residues; d marks the D form. Peptide text beside a SMILES is read from it. * marks the point of attachment. ξ: configuration not given here. dNMeF = CN[C@H](Cc1ccccc1)C(=O)O; Ile(3ξ) = CCC(C)[C@H](N)C(=O)O; X2 = O=C(CCCCCN1CNC(=S)NC1)*; X3 = O=C(CCCN1CNC(=S)NC1)*; X4 = O=C(CN1CNC(=S)NC1)*; X1 = NCC(CN)OC(=O)*

Columns and labels:
[1] = test system: Staphylococcus aureus ATCC 29213; assay: microbe, parasite or virus in culture; conditions: ATCC 29213
Protocol: (§1) For MIC testing all peptides were dissolved in DMSO (according to the method of L. L. Ling, et al., Nature 2015, 517, 455-459). Bacteria were grown on Mueller Hinton broth (oxoid). All incubations were at 37° C. Dilutions were carried out using Mueller Hinton. 100 μl of autoclaved Mueller Hinton broth was added to wells 2-12 on a 96-well plate. 200 μl of the peptide was added to well one at a concentration of 512 μg/ml. 100 μl of peptide in well one was taken up and pipetted into well two. The mixture was then mixed via pipetting before 100 μl was taken up and pipetted into well three. This process was repeated up to well 11. […] This was repeated three times. The 96-well plates were then incubated for 24 hours. The MIC was determined to be the lowest concentration at which there was no growth visible.

VRE ATCC 700802 = assay: microbe, parasite or virus in culture; conditions: ATCC 700802
Protocol: as §1

M. smegmatis ATCC 607 = assay: microbe, parasite or virus in culture; conditions: ATCC 607
Protocol: as §1

MRSA DR 42412 (sputum) = assay: microbe, parasite or virus in culture; conditions: DR 42412 (sputum)
Protocol: as §1

MRSA DM21455 (eye) = assay: microbe, parasite or virus in culture; conditions: DM21455 (eye)
Protocol: as §1

VRE ATCC 29212 = assay: microbe, parasite or virus in culture; conditions: ATCC 29212
Protocol: as §1

MRSA ATCC 700699 = assay: microbe, parasite or virus in culture; conditions: ATCC 700699
Protocol: as §1

MRSA ATCC 33591 = test system: MRSA ATCC 33591
Method in brief: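 Twofold broth microdilution in Mueller Hinton from a 512 μg/ml starting well, peptides dissolved in DMSO. Plates incubated 24 hours at 37° C, in triplicate. MIC read as lowest concentration without visible growth.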

Mycobacterium smegmatis = format: cell-based
Protocol: (§2) Bacteria were grown on Mueller Hinton broth (oxoid). All incubations were at 37° C. Dilutions were carried out using Mueller Hinton. […] This process was repeated up to well 11. […] This was repeated three times. […] Results are tabulated in the Examples.

S. aureus ATCC 25923 = format: cell-based, Staphylococcus aureus
Protocol: as §2

MRSA 1003 = format: cell-based, Staphylococcus aureus
Protocol: as §2

VRE 1002 = format: cell-based, Enterococcus faecalis
Protocol: as §2

VRE 1001 = format: cell-based, Enterococcus faecalis
Protocol: as §2

VRE 1004 = format: cell-based, Enterococcus faecalis
Protocol: as §2

VRE 1008 = format: cell-based, Enterococcus faecalis
Protocol: as §2

[2] = test system: Staphylococcus saprophyticus ATCC BAA 750; format: cell-based; conditions: ATCC BAA 750
Protocol: as §2

[3] = test system: Bacillus Cereus ATCC 11788; format: cell-based
Protocol: as §2

SE12228 = format: cell-based
Protocol: as §2

[4] = test system: Bacillus Subtilis ATCC 6633; format: cell-based
Protocol: as §2

[5] = test system: Staphylococcus saprophyticus ATCC 15305; format: cell-based; conditions: ATCC 15305
Protocol: as §2

[6] = test system: Staphylococcus saprophyticus ATCC 49453; format: cell-based; conditions: ATCC 49453
Protocol: as §2

[7] = test system: Staphylococcus saprophyticus ATCC 49907; format: cell-based; conditions: ATCC 49907
Protocol: as §2

SA4299 = format: cell-based; conditions: Table 11
Protocol: as §2

[8] = test system: human lung epithelial cell line A549; assay: Cytotoxicity in A549 cells (MTS assay, high content imaging); conditions: A549; 24 h
Protocol: (§3) It was important to evaluate the cytotoxicity of Compound 26 on mammalian cells prior to in vivo studies. The cytotoxicity of Compound 26 in human lung epithelial cell line A549 and primary dermal fibroblasts (hDFs) was determined. Both of these cell culture models are already established for evaluation of cytotoxicity of antimicrobial peptides.
(§4) The stock solution of Compound 26 (500 μg/ml) was prepared fresh by directly dissolving Compound 26 in cell culture medium and used. Cells were treated with dimethyl sulfoxide (DMSO, 0.1% v/v) or nocodazole (5 μg/ml dissolved in DMSO) as controls. At the end of the treatment period, metabolic activities of cells were quantified by MTS-based cell viability assay. […] After 24 h treatment with Compound 26, A549 cells (c) and hDFs (d) were fixed, fluorescently stained with rhodamine-phalloidin (red), alexa fluor 488 conjugated anti-α-tubulin (green) and Hoechst 33342 (blue) and imaged using IN Cell Analyzer 2200 automated microscope. Representative images of cells treated with Compound 26 (62.5 μg/ml for 24 h) or nocodazole (10 μg/ml, toxicity control) are shown in FIG. 2 c,d.

[9] = test system: human primary dermal fibroblasts (hDFs); assay: Cytotoxicity in primary dermal fibroblasts (MTS assay, high content imaging); conditions: hDFs; 24 h
Protocol: as §3, §4

MIC [1]: 1 µg/mL (≈ 0.863 µM) | MIC (VRE ATCC 700802): 4 µg/mL (≈ 3.45 µM) | MIC (M. smegmatis ATCC 607): 1 to 2 µg/mL | MIC (MRSA DR 42412 (sputum)): 1 µg/mL (≈ 0.863 µM) | MIC (MRSA DM21455 (eye)): 1 µg/mL (≈ 0.863 µM) | MIC (VRE ATCC 29212): 4 µg/mL (≈ 3.45 µM) | MIC (MRSA ATCC 700699): 4 µg/mL (≈ 3.45 µM) | MIC (MRSA*) (MRSA ATCC 33591; ATCC 33591): 1 to 2 µg/mL | MIC (μg/mL) Mycobacterium smegmatis (Mycobacterium smegmatis): 2 µg/mL (≈ 1.73 µM)
SMILES: CC[C@@H](C)[C@@H](NC(=O)[C@@H](CCC(N)=O)NC(=O)[C@H](CO)NC(=O)[C@@H](NC(=O)[C@@H](Cc1ccccc1)NC)[C@@H](C)CC)C(=O)N[C@H](C(=O)N[C@@H](CO)C(=O)N[C@H]1C(=O)N[C@@H](C)C(=O)N[C@@H](C)C(=O)N[C@@H]([C@@H](C)CC)C(=O)O[C@H]1C)[C@@H](C)CC [Compound 14]
MBC [1]: 2 µg/mL (≈ 1.73 µM) | MBC (MRSA DR 42412 (sputum)): 4 µg/mL (≈ 3.45 µM) | MBC (MRSA DM21455 (eye)): 2 µg/mL (≈ 1.73 µM) | MBC (MRSA ATCC 700699): 16 µg/mL (≈ 13.8 µM)

MIC (MRSA*) (MRSA ATCC 33591; ATCC 33591): 0.25 µg/mL (≈ 0.188 µM) | MIC (μg/mL) Mycobacterium smegmatis (Mycobacterium smegmatis): 0.5 µg/mL (≈ 0.375 µM)
SMILES: CC[C@@H](C)[C@@H](NC(=O)[C@@H](CCC(N)=O)NC(=O)[C@H](CO)NC(=O)[C@@H](NC(=O)[C@@H](Cc1ccccc1)NC)[C@@H](C)CC)C(=O)N[C@H](C(=O)N[C@@H](CO)C(=O)N[C@H]1C(=O)N[C@@H](C)C(=O)N[C@@H](CCCCNC(=O)OC(CN)CN)C(=O)N[C@@H]([C@@H](C)CC)C(=O)O[C@H]1C)[C@@H](C)CC [Compound 21, Diamino10-Teixobactin] (H-[dNMeF]IS[dQ][dI]IS[dT]AK(X1)I; ester 8-C)

MIC against S. aureus ATCC 25923 (S. aureus ATCC 25923): 2 µg/mL (≈ 1.46 µM)
SMILES: CC[C@@H](C)[C@@H](NC(=O)[C@@H](CCC(N)=O)NC(=O)[C@H](CO)NC(=O)[C@@H](NC(=O)[C@@H](Cc1ccccc1)NC)[C@@H](C)CC)C(=O)N[C@H](C(=O)N[C@@H](CO)C(=O)N[C@H]1C(=O)N[C@@H](C)C(=O)N[C@@H](CCCCNC(=O)CN2CNC(=S)NC2)C(=O)N[C@@H]([C@@H](C)CC)C(=O)O[C@H]1C)[C@@H](C)CC [Compound 22, Gly-thiourea-Lys10-teixobactin] (H-[dNMeF]IS[dQ][dI]IS[dT]AK(X4)I; ester 8-C)

MIC against S. aureus ATCC 25923 (S. aureus ATCC 25923): 2 µg/mL (≈ 1.43 µM)
SMILES: CC[C@@H](C)[C@@H](NC(=O)[C@@H](CCC(N)=O)NC(=O)[C@H](CO)NC(=O)[C@@H](NC(=O)[C@@H](Cc1ccccc1)NC)[C@@H](C)CC)C(=O)N[C@H](C(=O)N[C@@H](CO)C(=O)N[C@H]1C(=O)N[C@@H](C)C(=O)N[C@@H](CCCCNC(=O)CCCN2CNC(=S)NC2)C(=O)N[C@@H]([C@@H](C)CC)C(=O)O[C@H]1C)[C@@H](C)CC [Compound 23, GABA-thiourea-Lys10-teixobactin] (H-[dNMeF]IS[dQ][dI]IS[dT]AK(X3)I; ester 8-C)

MIC against S. aureus ATCC 25923 (S. aureus ATCC 25923): 2 µg/mL (≈ 1.4 µM)
SMILES: CC[C@@H](C)[C@@H](NC(=O)[C@@H](CCC(N)=O)NC(=O)[C@H](CO)NC(=O)[C@@H](NC(=O)[C@@H](Cc1ccccc1)NC)[C@@H](C)CC)C(=O)N[C@H](C(=O)N[C@@H](CO)C(=O)N[C@H]1C(=O)N[C@@H](C)C(=O)N[C@@H](CCCCNC(=O)CCCCCN2CNC(=S)NC2)C(=O)N[C@@H]([C@@H](C)CC)C(=O)O[C@H]1C)[C@@H](C)CC [Compound 24, Ahx-thiourea-Lys10-teixobactin] (H-[dNMeF]IS[dQ][dI]IS[dT]AK(X2)I; ester 8-C)

SMILES: CC[C@@H](C)[C@@H](NC(=O)[C@@H](CCCNC(=N)N)NC(=O)[C@H](CO)NC(=O)[C@@H](NC(=O)[C@@H](Cc1ccccc1)NC)[C@@H](C)CC)C(=O)N[C@H](C(=O)N[C@@H](CO)C(=O)N[C@H]1C(=O)N[C@@H](CCCNC(=N)N)C(=O)N[C@@H](CC(C)C)C(=O)N[C@@H]([C@@H](C)CC)C(=O)O[C@H]1C)[C@@H](C)CC [Compound 30, D-Arg4-Arg9-Leu10-teixobactin] (H-[dNMeF]IS[dR][dI]IS[dT]RLI; ester 8-C)
MIC (MRSA 1003): 0.5 µg/mL (≈ 0.38 µM) | MIC (VRE 1002): 1 µg/mL (≈ 0.761 µM) | MIC (VRE 1001): 1 µg/mL (≈ 0.761 µM) | MIC (VRE 1004): 1 µg/mL (≈ 0.761 µM) | MIC (VRE 1008): 1 µg/mL (≈ 0.761 µM) | MIC [1]: 1 µg/mL (≈ 0.761 µM) | MIC (VRE ATCC 700802): 1 µg/mL (≈ 0.761 µM) | MIC (MRSA DR 42412 (sputum)): 1 µg/mL (≈ 0.761 µM) | MIC (MRSA DM21455 (eye)): 1 µg/mL (≈ 0.761 µM) | MIC (VRE ATCC 29212): 1 µg/mL (≈ 0.761 µM) | MIC (MRSA ATCC 700699): 1 µg/mL (≈ 0.761 µM) | MIC against MRSA ATCC 33591 (MRSA ATCC 33591; MRSA ATCC 33591): 1 µg/mL (≈ 0.761 µM) | MIC [2]: <0.0625 µg/mL | MIC [3]: 1 µg/mL (≈ 0.761 µM) | MIC (SE12228): <0.0625 µg/mL | MIC [4]: <0.0625 µg/mL | MIC [5]: <0.0625 µg/mL | MIC [6]: <0.0625 µg/mL | MIC [7]: <0.0625 µg/mL | MIC (SA4299): 0.5 µg/mL (≈ 0.38 µM)

SMILES: CCC(C)[C@@H]1NC(=O)[C@H](CCCNC(=N)N)NC(=O)[C@H](NC(=O)[C@H](CO)NC(=O)[C@@H](NC(=O)[C@H](NC(=O)[C@@H](CCC(N)=O)NC(=O)[C@H](CO)NC(=O)[C@@H](NC(=O)[C@@H](Cc2ccccc2)NC)[C@@H](C)CC)[C@H](C)CC)[C@@H](C)CC)[C@H](C)OC(=O)[C@H]([C@@H](C)CC)NC1=O (stereo partly drawn) [Compound 34, Arg9-Ile10-teixobactin] (H-[dNMeF]IS[dQ][dI]IS[dT]R[Ile(3ξ)]I; ester 8-C)
MIC (MRSA 1003): 0.5 µg/mL (≈ 0.389 µM) | MIC (VRE 1002): 1 µg/mL (≈ 0.777 µM) | MIC (VRE 1001): 1 µg/mL (≈ 0.777 µM) | MIC (VRE 1004): 1 µg/mL (≈ 0.777 µM) | MIC (VRE 1008): 1 µg/mL (≈ 0.777 µM) | MIC [1]: 1 µg/mL (≈ 0.777 µM) | MIC (VRE ATCC 700802): 1 µg/mL (≈ 0.777 µM) | MIC (MRSA DR 42412 (sputum)): 0.125 µg/mL (≈ 0.0972 µM) | MIC (MRSA DM21455 (eye)): 0.5 µg/mL (≈ 0.389 µM) | MIC (VRE ATCC 29212): 1 µg/mL (≈ 0.777 µM) | MIC (MRSA ATCC 700699): 1 µg/mL (≈ 0.777 µM) | MIC (MRSA) (MRSA ATCC 33591; ATCC 33591): 0.25 µg/mL (≈ 0.194 µM) | MIC [2]: <0.0625 µg/mL | MIC [3]: 0.5 µg/mL (≈ 0.389 µM) | MIC (SE12228): <0.0625 µg/mL | MIC [4]: 0.125 µg/mL (≈ 0.0972 µM) | MIC [5]: <0.0625 µg/mL | MIC [6]: <0.0625 µg/mL | MIC [7]: <0.0625 µg/mL | MIC (SA4299): 1 µg/mL (≈ 0.777 µM)

SMILES: COC(=O)Nc1nc2ccc(C(=O)c3cccs3)cc2[nH]1 [nocodazole, reference compound]
cell morphology, high content images [8]: substantial loss of adhered cells | cell morphology, high content images [9]: substantial loss of adhered cells
